Assays:
[1] = test system: SP2/0 cells; experiment: Apoptosis by Annexin V-FITC PI double staining, SP2/0; type: cell-based, mouse; settings: compared to dexamethasone alone; FIG. 2M
Protocol: (§1) Apoptosis was detected by Annexin V-FITC PI double staining method (flow cytometry kit (FITC, PI double staining), Sangon Biotech (Shanghai) Co., Ltd.)), and the collected cells were washed once with phosphate buffered saline (PBS) (135 mM NaCl, 2.7 mM KCl, 1.5 mM KH2PO4 and 8 mM K2HPO4, pH 7.2); the 4× binding buffer was diluted to a 1× binding buffer with deionized water, then the cells were resuspended with 195 ul of the 1× binding buffer at a cell density of 2-5×10^5/ml; 5 μl of Annexin V-FITC was added to the 195 μl of the cell resuspension and mixed, and incubated in dark at room temperature for 10 minutes; the cells were washed once with 200 μl of the 1× binding buffer, and then resuspended in 190 μl of the 1× binding buffer; 10 μl of propidium iodide (20 μg/ml) was added. A flow cytometry device (Beckman company) was used for detection, and the rate of apoptosis was analyzed using Summit software. […]

[2] = test system: Jurkat cells; experiment: Apoptosis by Annexin V-FITC PI double staining, Jurkat; type: cell-based, human; settings: compared to the only/single dexamethasone group; FIG. 2F, 4J
Protocol: (§2) Apoptosis was detected by Annexin V-FITC PI double staining method (flow cytometry kit (FITC, PI double staining), Sangon Biotech (Shanghai) Co., Ltd.)), and the collected cells were washed once with phosphate buffered saline (PBS) (135 mM NaCl, 2.7 mM KCl, 1.5 mM KH2PO4 and 8 mM K2HPO4, pH 7.2); the 4× binding buffer was diluted to a 1× binding buffer with deionized water, then the cells were resuspended with 195 ul of the 1× binding buffer at a cell density of 2-5×10^5/ml; 5 μl of Annexin V-FITC was added to the 195 μl of the cell resuspension and mixed, and incubated in dark at room temperature for 10 minutes; the cells were washed once with 200 μl of the 1× binding buffer, and then resuspended in 190 μl of the 1× binding buffer; 10 μl of propidium iodide (20 μg/ml) was added. A flow cytometry device (Beckman company) was used for detection, and the rate of apoptosis was analyzed using Summit software.
(§3) The cells were cultured in RPMI 1640 complete medium (Gibco company) containing 10% fetal bovine serum (FBS, Gibco company) in an incubator (Thermo company) at 5% CO2 and 37° C. until reaching logarithmic growth phase, then different concentrations of inhibitors and/or dexamethasone/ethanol/DMSO were added to the culture medium, followed by further culturing (for addition of dexamethasone/ethanol/DMSO, for 48 hours, and for addition of inhibitor, for 24 hours), and apoptosis was detected by Annexin V-FITC PI double staining and proteins were detected by Western blot, as described in Example 1.
(§4) As described in Example 3, the cells were cultured in RPMI 1640 complete medium containing 10% fetal bovine serum under 5% CO2 and 37° C. until reaching logarithmic growth phase, and then dexamethasone and different concentrations of Akt inhibitor were added to the culture medium, followed by further culture (for addition of dexamethasone/DMSO, for 48 hours, and for addition of the inhibitor, for 24 hours), the apoptosis was detected by Annexin V-FITC PI double staining method and proteins were detected by Western blot as described in Example 1 as well as the cell viability was detected by CCK-8 method.
The transfected cells were selected and passaged for 3 to 5 passages after resuscitation, with Interferin™ as transfection reagent, and the transfection procedure was performed in accordance with the instruction of the transfection reagent. In short, the cells of logarithmic growth phase were plated at 2×10^5/well, the cells were replaced with fresh complete medium (free of antibiotics) during transfection, siRNA was diluted with Opti-MEM and added with an appropriate amount of […]in™ and mixed, incubated at room temperature for 10 minutes prior to being added dropwise to the cells, and the cells were harvested at appropriate time. The cells were transfected with green fluorescein-labeled siRNA (FAM-siRNA) (siRNA at a final concentration of 20 μM, 1.25 μl/well), and the transfection efficiency was observed using a fluorescence microscope 24 hours later. The dexamethasone group was added 24 hours after transfection, followed by culture for further 24 hours, and then the cells were collected for observation; and the equal amount of anhydrous ethanol was added to the control group.

[3] = test system: CCRF-CEM tumor-bearing mice; experiment: Glucocorticoid sensitization in CCRF-CEM tumor-bearing nude mice; type: in vivo
Protocol: The overall survival time, tumor size and spleen cell apoptosis of the tumor-bearing mice were measured, and the pathological HE staining was carried out to tumors.
The overall survival, tumor size and spleen size of the tumor-bearing mice were measured, the pathological sections of tumor were for HE and Ki-67 staining, and the pathological sections of spleen were for HE, CD3, and TdT staining.

[4] = test system: CCRF-CEM cells; experiment: Apoptosis by Annexin V-FITC PI double staining (flow cytometry), CCRF-CEM; type: cell-based, human
Protocol: (§5) The control group was not added with any reagents. All experiments were performed in triplicate.
as §2, §3, §4

[5] = test system: Molt4 cells; experiment: Apoptosis by Annexin V-FITC PI double staining, Molt4; type: cell-based, human; settings: compared to the only dexamethasone group; FIG. 2E
Protocol: as §1

[6] = test system: Raji cells; experiment: Apoptosis by Annexin V-FITC PI double staining, Raji; type: cell-based, human; settings: compared to dexamethasone alone; FIG. 2K, 2N
Protocol: as §1

[7] = test system: Akt/FoxO3a/Bim signaling pathway in CCRF-CEM cells; experiment: Western blot of Akt/FoxO3a/Bim signaling pathway proteins in CCRF-CEM cells; type: cell-based, human; settings: compared to the only dexamethasone group, FIG. 2B, 2H
Protocol: as §5
Protein detection by Western blot: in the examples of the present invention, Akt antibody (rabbit derived), phosphorylated Akt antibody (rabbit derived), FoxO3a antibody (rabbit derived), phosphorylated FoxO3a antibody (rabbit derived) and GAPDH antibody (rabbit derived) and secondary antibodies were all purchased from CST company. The cells were collected in a centrifuge tube and centrifuged at 1000 rpm, the supernatant was discarded and the cells were washed twice with PBS pre-cold at 4° C.; cell lysis buffer (150 mM NaCl, 1% NP-40, 0.1% SDS, 2 μg/ml Aprotinin, 2 μg/ml Leupeptin, 1 mM PMSF, 1.5 mM EDTA, 1 mM sodium vanadate) was added and the cells were lysed on ice for 40 minutes, the cell lysate was centrifuged at 20000 rpm, 4° C. for 15 minutes, and the supernatant was collected; a protein loading buffer for sodium dodecyl sulfate polyacrylamide (SDS-PAGE) gel electrophoresis (1.25 mL 1MTris-HCl (pH6.8), 0.5 g SDS, 25 mg BPB, 2.5 mL glycerol, 5 mL deionized water) was added, followed by boiling for 5 minutes to denature proteins; the loading buffer containing denatured proteins was applied to 10% SDS-PAGE for electrophoresis at 120 V, and then transferred to a PVDF membrane (Sangon Biotech (Shanghai) Co., Ltd.) at 130 V for 1.5 hours; after the membrane transfer was completed, the PVDF membrane was immediately rinsed with a Western washing solution (150 mmol/L NaCl, 50 mmol/L Tris-HCl (pH 7.5)) for 1-2 minutes; added with 5% non-fat milk powder (Shanghai Biotechnology Co., Ltd.), agitated gently and then blocked at room temperature for 60 minutes; a primary antibody diluted appropriately with 5% non-fat milk powder was added, and incubated overnight at room temperature with gentle agitating; the primary antibody was recovered and the membrane was washed three times with the washing solution for 5-10 minutes each; a horseradish peroxidase-labeled secondary antibody diluted appropriately with the Western washing solution was added, and incubated at room temperature for 1 hour with gentle agitating; the secondary antibody was recovered and the membrane was washed three times with the Western washing solution for 5-10 minutes each. An appropriate amount of developing solution (DAB 4 mg, 30% hydrogen peroxide 15 μL, 0.01 M Tris-Cl (pH 7.5) 5 mL) was dropped on the PVDF membrane, the image was detected using a bioluminescence image colorimeter and a gel imaging system (Thermo company), and the quantitative analysis of bands was performed using Image Lab software.
as §3
Methods: CCRF-CEM cells were cultured in RPMI 1640 complete medium (Gibco company) containing 10% fetal bovine serum (FBS, Gibco company) in an incubator (Thermo company) at 5% CO2 and 37° C. until reaching logarithmic growth phase, then DMSO, dexamethasone and different inhibitors (DMSO: 0.1%, dexamethasone: 0.1 μM, inhibitors: 0.8 μM) were added to the culture medium, and further cultured (for addition of dexamethasone or DMSO, for 48 hours, and for addition of inhibitors, for 24 hours), and the proteins were detected by Western blot, as described in Example 1.

[8] = mouse, in vivo

## CC[n+]1c(/C=C/N(C)c2ccccc2)n(-c2ccccc2)c2ccc(-c3nc4ccccc4s3)cc21.[I-] [Akt IV]
[1]
  apoptosis of SP2/0 cells, inhibitor in combination with dexamethasone: significantly increased
[2]
  apoptosis of Jurkat cells, inhibitor in combination with dexamethasone: significantly increased
[3]; Akt inhibitor 1.25 μg/mouse plus dexamethasone 0.1 mg/mouse i.p. once daily 7 days, vs single dexamethasone group, FIG. 3A, 3B
  size of subcutaneous tumor: synergized with dexamethasone to reduce the size of subcutaneous tumor
[3]; Akt inhibitor in combination with dexamethasone vs single dexamethasone group, FIG. 3D
  overall survival of tumor-bearing mice: significantly increased
[3]; Akt inhibitor plus dexamethasone vs single dexamethasone group, FIG. 3E
  apoptosis of spleen lymphocytes in the tumor-bearing mice: significantly increased
[4]; CCRF-CEM, in combination with dexamethasone, FIG. 2L
  sensitization effect to glucocorticoids compared with other cell proliferation pathway inhibitors: strongest effect of inducing apoptosis in combination with dexamethasone
[4]; FIG. 2C
  apoptosis rate of CCRF-CEM cells, different concentrations of Akt inhibitor in combination with dexamethasone: increased along with the increased concentration of the Akt inhibitor
[4]; compared to dexamethasone alone, FIG. 2A: Akt inhibitor 1 μM, dexamethasone 1 μM, LY294002 30 μM, FIG. 2G, 2J, 2K
  apoptosis of CCRF-CEM cells induced by dexamethasone, inhibitor plus dexamethasone: significantly increased
[5]
  apoptosis rate of Molt4 cells, inhibitor in combination with dexamethasone: significantly increased
[6]
  apoptosis of Raji cells, inhibitor in combination with dexamethasone: significantly increased
[7]
  expression of pro-apoptosis factor Bim, inhibitor plus dexamethasone: up-regulated
[7]; 2I
  expression of phosphorylated FoxO3a, inhibitor plus dexamethasone: significantly down-regulated
[8]
  liver toxicity: obvious liver toxicity
